According to patent publication US20200268632A1, “ANTI-AGING AGENT AND ANTI-AGING METHOD” (priority 2017, published 2020):

Key:
[1] = Safety observation of the subjects during 24 weeks of ingestion (complaints, stool abnormality); format: in vivo, human; conditions: healthy males and females aged 50 to 70, 100 or 200 mg/daily oral, ingestion for 24 weeks
Protocol: (§1) Each group consisting of five healthy males and females aged 50 to 70 years in an unbiased age group ingested the above low dose capsule formulation once a day by 4 capsules for 24 weeks (total 10 subjects, a low dose group: 100 mg/daily ingestion). On the other hand, each group consisting of five healthy males and females aged 50 to 70 years in the unbiased age group ingested the above high dose capsule formulation once a day by 4 capsules for 24 weeks (total 10 subjects, a high dose group: 200 mg/daily ingestion). In order to conduct appropriate evaluations, those who had been regularly using medical products for chronic diseases, those who had been consuming healthy foods that may affect clinical research, and those who were currently participating in other clinical researches or clinical trials, or had participated in other clinical researches or clinical trials within the last three months were excluded from the subject for the evaluation. The capsule formulations were ingested at 10 am (between meals and fasting state) together with water or lukewarm water (oral administration).

melatonin = experiment: Evaluation of melatonin secretion promoting effect: melatonin concentration in plasma during 24 weeks of oral ingestion; format: in vivo, human; conditions: for Change rate (24 weeks-0 weeks) of melatonin concentration in the plasma: mean ± SD
Protocol: In order to confirm a change in the melatonin quantity before and after ingestion of the nicotinamide mononucleotide, a test was conducted on healthy males and females aged 50 to 70 years.
As a sample of Working Example 1, a capsule formulation containing the nicotinamide mononucleotide and starch (100 mg (low dose) and 200 mg (high dose) of the nicotinamide mononucleotide in 4 capsules) (manufactured by SHINKOWA PHARMACEUTICAL Co., Ltd.) was used.
as §1
Measurement of the melatonin quantity in plasma was conducted by requesting the measurement to an external public organization according to a usual method. FIGS. 2a to 2c indicates transitions of the melatonin concentration (pg/ml) in the plasma for 24 weeks. FIG. 2a represents the transitions of the whole subjects; FIG. 2b represents the transitions of the male subjects; FIG. 2c represents the transitions of the female subjects. FIGS. 3a to 3c indicates change rates (%) of the blood melatonin concentration up to 24 weeks when the nicotinamide mononucleotide was orally administered to the subjects for 24 weeks. FIG. 3a represents the change rates of the whole subjects; FIG. 3b represents the change rates of the male subjects; FIG. 3c represents the change rates of the female subjects. Further, Table 1 indicates the numerical values of the melatonin concentration (pg/ml) in the plasma before the ingestion of the nicotinamide mononucleotide (0 weeks) and after the ingestion of the nicotinamide mononucleotide (24 weeks). In addition, the numerical values represent mean values ±standard deviation.

## NC(=O)c1ccc[n+]([C@@H]2O[C@H](COP(=O)([O-])O)[C@@H](O)[C@H]2O)c1 [nicotinamide mononucleotide]
[1]
  unidentified complaints (abdominal pain, nausea, vomiting, headache) or stool abnormality: did not show any unidentified complaint
melatonin; female subjects, high dose group (200 mg/daily, oral)
  Change rate (24 weeks-0 weeks) of melatonin concentration in the plasma: 6.03 ± 5.90 pg/mL
melatonin; female subjects, low dose group (100 mg/daily, oral)
  Change rate (24 weeks-0 weeks) of melatonin concentration in the plasma: 2.21 ± 3.19 pg/mL
melatonin; healthy males and females aged 50 to 70, 100 or 200 mg/daily oral, up to 24 weeks
  effect of ingestion on melatonin concentrations in plasma (FIGS. 2a-2c, 3a-3c): increased the melatonin concentrations in plasma at the high change rates
melatonin; male subjects, high dose group (200 mg/daily, oral)
  Change rate (24 weeks-0 weeks) of melatonin concentration in the plasma: 2.86 ± 3.10 pg/mL
melatonin; male subjects, low dose group (100 mg/daily, oral)
  Change rate (24 weeks-0 weeks) of melatonin concentration in the plasma: 3.44 ± 3.57 pg/mL
melatonin; whole subjects, both the low dose group and the high dose group, 24 weeks, p<0.05
  melatonin concentration in the plasma after ingestion compared to before ingestion, statistical significance: a significant difference was observed
melatonin; whole subjects, high dose group (200 mg/daily, oral)
  Change rate (24 weeks-0 weeks) of melatonin concentration in the plasma: 4.45 ± 4.75 pg/mL
melatonin; whole subjects, low dose group (100 mg/daily, oral)
  Change rate (24 weeks-0 weeks) of melatonin concentration in the plasma: 2.82 ± 3.26 pg/mL
